Reference: patent US20030236229A1 (priority 1996, published 2003)
Counter-ions that a name gives are not always drawn.

Molecular target: T1, Golgi α-mannosidase II (Canavalia ensiformis, UniProt C0HJB3)
T1 sequence (C0HJB3 1-981): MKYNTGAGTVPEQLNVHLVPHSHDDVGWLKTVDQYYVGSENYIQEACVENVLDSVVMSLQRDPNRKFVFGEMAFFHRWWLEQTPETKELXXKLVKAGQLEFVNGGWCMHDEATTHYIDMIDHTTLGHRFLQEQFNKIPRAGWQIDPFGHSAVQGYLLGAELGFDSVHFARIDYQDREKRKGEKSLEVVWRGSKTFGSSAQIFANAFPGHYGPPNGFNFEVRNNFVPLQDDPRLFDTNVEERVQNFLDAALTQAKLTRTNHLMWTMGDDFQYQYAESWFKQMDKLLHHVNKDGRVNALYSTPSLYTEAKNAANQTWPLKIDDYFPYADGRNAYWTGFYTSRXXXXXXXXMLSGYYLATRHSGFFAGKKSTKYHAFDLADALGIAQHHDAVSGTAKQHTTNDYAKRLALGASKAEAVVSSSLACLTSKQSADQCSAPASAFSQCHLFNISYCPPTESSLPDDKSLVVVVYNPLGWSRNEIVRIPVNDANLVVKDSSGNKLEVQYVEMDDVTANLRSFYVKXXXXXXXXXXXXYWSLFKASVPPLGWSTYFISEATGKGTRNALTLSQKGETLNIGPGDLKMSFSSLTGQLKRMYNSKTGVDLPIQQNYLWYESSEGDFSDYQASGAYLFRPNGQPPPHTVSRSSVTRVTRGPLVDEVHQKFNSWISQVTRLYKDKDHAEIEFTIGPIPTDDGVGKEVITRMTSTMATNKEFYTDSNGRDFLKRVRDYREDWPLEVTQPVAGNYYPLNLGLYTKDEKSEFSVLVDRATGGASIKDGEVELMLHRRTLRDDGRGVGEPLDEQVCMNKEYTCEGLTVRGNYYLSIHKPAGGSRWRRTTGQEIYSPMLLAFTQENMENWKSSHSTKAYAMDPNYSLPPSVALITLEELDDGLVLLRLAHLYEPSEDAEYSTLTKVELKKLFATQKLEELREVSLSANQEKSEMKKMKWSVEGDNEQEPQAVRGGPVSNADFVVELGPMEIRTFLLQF
Test: not given
Assay type: biochemical
Conditions: sodium acetate pH 5.6, 60 min at 37° C., p-nitrophenol read at 405
Method: (§1) 15 μl of α-mannosidase (Sigma 38 U/ml) was added to each well and the plates were incubated for 60 min at 37° C. The reaction was stopped by the addition of 50 μl of 0.5M sodium carbonate and formation of p-nitrophenol was measured with a plate set at […]. […] The reaction was stopped by the addition of 50 μl of 0.5M sodium carbonate and formation of p nitrophenol was measured with a plate set at 405.

With `OC1=C(O)N2CCC[C@@H](O)[C@H]2[C@@H]1O` [(1S,8R,8aS)-1,5,6,7,8,8a-Hexahydro-1,2,3,8-indolizinetetraol] the “MannoaidaseII Activity (μM)” value was “No detectable”.

Same assay, conditions: sodium acetate pH 5.6, 60 min at 37° C., p-nitrophenol read at 405; read-out: MannoaidaseII Activity

Compared with `OCC1C(O)C(O)C2C(O)CCCN12` (stereo not shown) [EJH-4-263, 3-hydroxymethyl-swainsonine], `O=C1[C@H](O)[C@@H](O)[C@@H]2[C@H](O)CCCN12` [GD 35, (1S,2R,8R,8aS)-1,2,8-Trihydroxyhexahydo-3(2II)-indolizinone] is 560-fold higher in IC50: 1.83 ± 1.3 µM for the first, 1030 µM for the second.

Molecular target: T2, lysosomal mannosidase (Homo sapiens, UniProt O00754)
T2 sequence (O00754 50-1011): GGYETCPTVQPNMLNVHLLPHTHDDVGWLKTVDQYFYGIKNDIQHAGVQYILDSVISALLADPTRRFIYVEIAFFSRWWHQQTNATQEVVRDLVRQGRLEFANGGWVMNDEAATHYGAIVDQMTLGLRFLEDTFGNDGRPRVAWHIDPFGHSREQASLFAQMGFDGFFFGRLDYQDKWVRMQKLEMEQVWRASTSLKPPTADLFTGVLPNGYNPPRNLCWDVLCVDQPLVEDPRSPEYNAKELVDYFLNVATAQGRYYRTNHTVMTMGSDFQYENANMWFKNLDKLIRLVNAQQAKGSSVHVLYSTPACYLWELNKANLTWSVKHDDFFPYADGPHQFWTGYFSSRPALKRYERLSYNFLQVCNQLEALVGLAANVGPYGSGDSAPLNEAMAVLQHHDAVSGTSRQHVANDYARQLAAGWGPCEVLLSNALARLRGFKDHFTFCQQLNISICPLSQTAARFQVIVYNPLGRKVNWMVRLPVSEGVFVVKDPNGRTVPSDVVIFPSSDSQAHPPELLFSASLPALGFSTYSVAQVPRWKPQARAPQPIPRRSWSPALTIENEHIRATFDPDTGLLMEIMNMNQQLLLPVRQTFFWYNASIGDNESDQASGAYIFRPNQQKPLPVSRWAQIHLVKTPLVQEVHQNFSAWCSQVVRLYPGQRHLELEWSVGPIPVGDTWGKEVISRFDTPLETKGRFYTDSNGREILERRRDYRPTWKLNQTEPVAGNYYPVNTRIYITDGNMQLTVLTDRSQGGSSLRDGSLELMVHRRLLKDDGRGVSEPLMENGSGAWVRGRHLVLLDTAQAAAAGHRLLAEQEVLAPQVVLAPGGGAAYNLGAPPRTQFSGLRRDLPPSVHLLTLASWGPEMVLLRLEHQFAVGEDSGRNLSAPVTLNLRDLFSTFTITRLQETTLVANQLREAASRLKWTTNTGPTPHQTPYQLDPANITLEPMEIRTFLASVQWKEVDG
Test: biochemical
Conditions: Lysosomal Mannosidase Activity (μM)
Method: as §1

`O[C@H]1[C@H]2[C@H](O)CCCN2C[C@H]1O` [Swainsonine, reference compound] gave an IC50 of 0.08 ± 0.079 µM.

Same assay, conditions: sodium acetate pH 5.0, 60 min at 37° C., p-nitrophenol read at 405

With `OC1=C(O)N2CCC[C@@H](O)[C@H]2[C@@H]1O` [(1S,8R,8aS)-1,5,6,7,8,8a-Hexahydro-1,2,3,8-indolizinetetraol] the “Lysosomal Mannosidase Activity (μM)” value was “No detectable inhibition”.

Same assay, conditions: sodium acetate pH 5.0, 60 min at 37° C., p-nitrophenol read at 405; read-out: Lysosomal Mannosidase Activity

Compared with `CC1CCC(O)C2C(O)C(O)CN12` (single isomer, unassigned) [GD37], `CC[C@H]1CC[C@@H](O)[C@@H]2[C@H](O)[C@H](O)CN12` [GD 38, (5S)-5-Ethylswainsonine] is 78-fold lower in IC50: 28.2 ± 7.85 µM for the first, 0.36 ± 0.313 µM for the second. The second is the more potent here.

Compared with `OC1CN2C(COCc3ccccc3)CCC(O)C2C1O` (single isomer, unassigned) [GD42], `OC[C@H]1CC[C@@H](O)[C@@H]2[C@H](O)[C@H](O)CN12` [GD45, (5R)-5-(Hydroxymethyl)swainsonine] is 4.3-fold higher in IC50: 0.164 ± 0.0491 µM for the first, 0.705 ± 0.309 µM for the second. The first is the more potent here.

`CC1CCC(O)C2C(O)C(O)CN12` (single isomer, unassigned) [GD 20] and `OC[C@@H]1CC[C@@H](O)[C@@H]2[C@H](O)[C@H](O)CN12` [GD 46, (5S)-5-(Hydroxymethyl)swainsonine] are within error of each other in IC50: 2.3 ± 1.13 µM for the first, 1.48 ± 0.455 µM for the second.

Compared with `CC1CCC(O)C2C(O)C(O)CN12` (single isomer, unassigned) [GD 28], `C[C@H]1[C@@H](CO)C[C@@H](O)[C@@H]2[C@H](O)[C@H](O)CN21` [GD40, (5S,6S)-6-Hydroxymethyl-5-methylswainsonine] is 200-fold higher in IC50: 0.316 ± 0.0759 µM for the first, 62.4 ± 17.9 µM for the second.

Going from `OC1CN2C(COCc3ccccc3)CCC(O)C2C1O` (single isomer, unassigned) [GD 91] to `CC1CCC(O)C2C(O)C(O)CN12` [GD19, (5R)-5-Methylswainsonine formate salt], the IC50 falls from 3.23 ± 0.268 µM to 1.45 ± 0.071 µM (2.2-fold).

`N#CC1C(O)[C@@H](O)C2[C@H](O)CCCN12` (stereo in doubt) [GD 92, (1S, 2S, 3R/S, 8R, 8aS)-3-cyano-1,2,8-Trihydroxyoctahydroindolizine] and `OCC1C(O)C(O)C2C(O)CCCN12` (stereo not shown) [EJH-4-263, 3-hydroxymethyl-swainsonine] are within error of each other in IC50: 30.1 ± 1.2 µM for the first, 39.1 ± 16.3 µM for the second.

Going from `OCC1C(O)C(O)C2C(O)CCCN12` (stereo not shown) [EJH-4-264, 3-hydroxymethyl-swainsonine] to `O=C1[C@H](O)[C@@H](O)[C@@H]2[C@H](O)CCCN12` [GD 35, (1S,2R,8R,8aS)-1,2,8-Trihydroxyhexahydo-3(2II)-indolizinone], the IC50 rises from 1.7 ± 0.5 µM to 1090 µM (640-fold). The first is the more potent here.

Going from `C[C@@H]1[C@H](CO)C[C@@H](O)[C@@H]2[C@H](O)[C@H](O)CN21` [GD44, (5R,6R)-6-Hydroxymethyl-5-methylswainsonine] to `CCOC(=O)C1CC(O)C2C(O)C(O)CN2C1C` [GD84, ethyl (5R,6R)-5-methylswainsonine-6-carboxylate], the IC50 rises from 24.5 ± 7.62 µM to 1500 ± 707 µM (61-fold). The first is the more potent here.

Work on `CCOC(=O)[C@H]1C[C@H](O)[C@@H]2[C@@H](O)[C@H](O)CN2[C@H]1C` [GD 36, ethyl (1R,2R,5S,6S,8S,8aR)-1,2,8-trihydroxy-5-methyloctahydro-6-indolizinecarboxylate] yielded an IC50 of 120 ± 32.2 µM.

System: MDAY-D2 tumor cells
Test: not given
Conditions: viable MDAY-D2 tumor cells; cited from earlier work

In the case of `CCCC(=O)OC1CN2CCCC(O)C2C1O` (stereo not shown) [2-butanoyloxy], the “activity as inhibitors of Golgi oligosaccharide processing” value (shortened to “activity as inhibitors”) is listed as “retained full activity”.
For `CCCCCCCC(=O)OC1CN2CCCC(O)C2C1O` (stereo not shown) [2-octanoyloxy], the “activity as inhibitors” value is listed as “retained full activity”.
For `O=C(OC1CN2CCCC(O)C2C1O)c1ccc([N+](=O)[O-])cc1` (stereo not shown) [2-p-nitrobenzoyloxy], the “activity as inhibitors” value is given as “retained full activity”.
